pIC50: −log10 of the molar value.

Type in all cases: biochemical
In one assay the target is T1, human GST-DYRK1A (Homo sapiens, UniProt Q13627).
T1 construct: purified human GST-DYRK1A (full length, Thermo Scientifics) enzyme; purchased Thermo Scientifics
Description: GST-DYRK1A enzyme inhibition, ADP-Glo kinase assay. Conditions: ATP 10 μM, GST-DYRK1A full length, read-out: DYRK1 IC50. In a few lines:
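Full-length enzyme (10 ng) was incubated with 10 μM ATP and a specific substrate for 1 h at 25 °C in 40 mM Tris-HCl pH 7.4, 20 mM MgCl2, 0.5 mg/mL BSA, 50 μM DTT. Luminescence was read against a solvent control, and IC50 values were derived from 3 data sets.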

For another assay, the target named is T2, human GST-CLK1 (Homo sapiens, UniProt P49759).
T2 construct: purified human GST-CLK1 (129-end, SignalChem) enzyme; purchased SignalChem
T2 sequence (P49759 129-484 limits assumed): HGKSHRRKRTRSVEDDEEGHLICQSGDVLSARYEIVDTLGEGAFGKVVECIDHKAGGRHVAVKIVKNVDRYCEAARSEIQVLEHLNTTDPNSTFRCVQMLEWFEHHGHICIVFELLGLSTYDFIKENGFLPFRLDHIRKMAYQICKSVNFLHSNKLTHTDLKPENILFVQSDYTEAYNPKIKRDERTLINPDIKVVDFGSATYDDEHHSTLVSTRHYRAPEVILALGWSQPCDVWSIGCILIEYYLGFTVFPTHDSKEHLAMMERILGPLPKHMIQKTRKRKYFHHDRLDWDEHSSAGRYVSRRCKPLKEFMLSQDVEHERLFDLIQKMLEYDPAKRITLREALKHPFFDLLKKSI
The experiment in a line: GST-CLK1 enzyme inhibition, ADP-Glo kinase assay. Conditions: ATP 10 μM, GST-CLK1 129-end. In a few lines:
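ADP-Glo luminescence read-out, relative to untreated solvent control, gave IC50 (nM) from triplicate data sets. Reactions ran an hour at 25° C with 3 ng GST-CLK1 (residues 129-end), 10 μM ATP and specific substrate in Tris-HCl pH 7.4 buffer with MgCl2, BSA and DTT.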
(In general: ADP-Glo turns the ADP formed in a reaction into a luminescent signal.)

The target in another assay is LRRK2 (G2019S) (Homo sapiens, UniProt Q5S007, G2019S). Description: LRRK2 G2019S enzyme inhibition, ADP-Glo kinase assay. On the set-up: purchased SignalChem L10-12GG. Conditions: ATP 25 μM. The procedure, abridged: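 IC50 derived from luminescent ADP-Glo readout against untreated solvent control, twelve final compound concentrations from 50 μM downward. Reaction: recombinant human LRRK2 G2019S enzyme, 25 μM ATP, substrate, pH 7.4 Tris buffer with MgCl2/BSA/DTT, 25° C. for 2 hours.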
Chain of LRRK2 (G2019S) (Q5S007 970-2527 G2019S limits assumed): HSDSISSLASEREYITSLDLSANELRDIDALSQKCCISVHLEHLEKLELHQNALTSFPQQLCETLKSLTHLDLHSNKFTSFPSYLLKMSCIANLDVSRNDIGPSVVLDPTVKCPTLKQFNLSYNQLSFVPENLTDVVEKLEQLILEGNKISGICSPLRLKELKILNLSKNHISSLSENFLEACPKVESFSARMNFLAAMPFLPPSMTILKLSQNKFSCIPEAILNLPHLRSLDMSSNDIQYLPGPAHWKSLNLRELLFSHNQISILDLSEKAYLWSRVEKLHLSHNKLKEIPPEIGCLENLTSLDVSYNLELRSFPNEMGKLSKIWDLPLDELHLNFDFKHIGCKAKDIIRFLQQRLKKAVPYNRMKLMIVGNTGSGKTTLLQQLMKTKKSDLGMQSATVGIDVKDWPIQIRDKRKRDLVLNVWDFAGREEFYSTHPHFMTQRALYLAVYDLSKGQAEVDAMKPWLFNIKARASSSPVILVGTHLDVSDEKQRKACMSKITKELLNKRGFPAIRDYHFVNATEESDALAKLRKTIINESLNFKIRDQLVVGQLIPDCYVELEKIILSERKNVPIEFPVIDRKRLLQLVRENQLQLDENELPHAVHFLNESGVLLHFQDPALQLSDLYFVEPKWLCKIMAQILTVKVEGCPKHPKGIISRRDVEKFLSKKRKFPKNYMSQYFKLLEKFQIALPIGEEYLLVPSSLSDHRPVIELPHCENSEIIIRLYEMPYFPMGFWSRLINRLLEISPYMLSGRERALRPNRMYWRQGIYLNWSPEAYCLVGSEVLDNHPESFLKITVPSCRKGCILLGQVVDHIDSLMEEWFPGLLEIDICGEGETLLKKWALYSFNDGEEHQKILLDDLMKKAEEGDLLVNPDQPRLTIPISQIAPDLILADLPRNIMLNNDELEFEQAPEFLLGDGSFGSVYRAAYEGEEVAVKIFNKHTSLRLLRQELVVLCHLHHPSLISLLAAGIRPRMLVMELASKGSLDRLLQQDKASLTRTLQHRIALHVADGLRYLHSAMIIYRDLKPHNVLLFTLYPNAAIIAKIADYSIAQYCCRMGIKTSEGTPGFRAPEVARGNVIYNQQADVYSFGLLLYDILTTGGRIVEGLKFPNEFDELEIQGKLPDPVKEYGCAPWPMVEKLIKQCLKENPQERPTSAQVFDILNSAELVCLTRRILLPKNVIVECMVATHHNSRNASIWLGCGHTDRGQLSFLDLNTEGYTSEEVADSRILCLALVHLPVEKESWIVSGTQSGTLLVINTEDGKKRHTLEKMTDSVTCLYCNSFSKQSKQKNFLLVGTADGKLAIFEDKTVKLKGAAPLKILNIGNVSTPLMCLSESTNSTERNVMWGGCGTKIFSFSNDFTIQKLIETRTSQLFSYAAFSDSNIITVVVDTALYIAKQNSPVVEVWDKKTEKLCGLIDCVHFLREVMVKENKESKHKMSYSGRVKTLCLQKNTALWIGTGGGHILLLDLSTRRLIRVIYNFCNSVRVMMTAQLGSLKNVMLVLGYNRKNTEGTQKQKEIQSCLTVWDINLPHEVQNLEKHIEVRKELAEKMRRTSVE

For orientation: pIC50 means −log10 of the IC50, conventionally taken in molar units. As for `COc1cc(S(=O)(=O)N2CCOCC2)ccc1Nc1nc(NCC2CC2)c2cc[nH]c2n1` [Example 31, N^4-(cyclopropylmethyl)-N^2-(2-methoxy-4-(morpholinosulfonyl)phenyl)-7H-pyrrolo[2,3-d]pyrimidine-2,4-diamine 2,2,2-trifluoroacetate], the pIC50 at human GST-DYRK1A is 6.00 to 6.52; against human GST-CLK1 it was 6.00 to 6.52; on LRRK2 (G2019S) it was greater than 7.00.

`COc1cc(S(=O)(=O)N2CCC(N3CCOCC3)CC2)ccc1Nc1nc(NCC2CCCC2)c2cc[nH]c2n1` [Example 41, N^4-(cyclopentylmethyl)-N^2-(2-methoxy-4-((4-morpholinopiperidin-1-yl)sulfonyl)phenyl)-7H-pyrrolo[2,3-d]pyrimidine-2,4-diamine 2,2,2-trifluoroacetate]: the pIC50 is 6.00 to 6.52 on human GST-DYRK1A, 6.00 to 6.52 against human GST-CLK1 and greater than 7.00 against LRRK2 (G2019S).

In the case of `COc1cc(S(C)(=O)=O)ccc1Nc1nc(NC2CC2)c2cc[nH]c2n1` [Example 55, N^4-cyclopropyl-N^2-(2-methoxy-4-(methylsulfonyl)phenyl)-7H-pyrrolo[2,3-d]pyrimidine-2,4-diamine], the pIC50 at human GST-DYRK1A was 6.00 to 6.52; on human GST-CLK1 it was 6.00 to 6.52; on LRRK2 (G2019S), greater than 7.00.

As to `COCC(C)(C)Nc1nc(Nc2ccc(S(=O)(=O)N3CCC(N4CCOCC4)CC3)cc2OC)nc2[nH]ccc12` [Example 35, N^4-(1-methoxy-2-methylpropan-2-yl)-N^2-(2-methoxy-4-((morpholinopiperidin-1-yl)sulfonyl)phenyl)-7H-pyrrolo[2,3-d]pyrimidine-2,4-diamine], the negative-log IC50 (pIC50) was 6.00 to 6.52 at human GST-DYRK1A, 6.52 to 7.00 against human GST-CLK1 and greater than 7.00 on LRRK2 (G2019S).

Consider `COc1cc(P2(=O)CCN(C3CC3)CC2)ccc1Nc1nc(NCCS(C)(=O)=O)c2c(C(F)(F)F)c[nH]c2n1` [Example 426, 1-cyclopropyl-4-(3-methoxy-4-((4-((2-(methyl-sulfonyl)eth-yl)amino)-5-(trifluoromethyl)-7H-pyrrolo[2,3-d]pyrimidin-2-yl)amino)phenyl)-1,4-azaphosphinane 4-oxide], for which the pIC50 on human GST-DYRK1A, at human GST-CLK1 and against LRRK2 (G2019S) was greater than 7.00 throughout.

As for `CC[C@H](C)Nc1nc(Nc2ccc(C(=O)N3CCOCC3)c3c2OCC3)nc2[nH]cc(C(F)(F)F)c12` [Example 451, (S)-(7-((4-(sec-butylamino)-5-(trifluoromethyl)-7H-pyrrolo[2,3-d]pyrimidin-2-yl)amino)-2,3-dihydrobenzo-furan-4-yl) (morpholino) methanone], the pIC50 was 6.00 to 6.52 at human GST-DYRK1A, 6.00 to 6.52 against human GST-CLK1 and greater than 7.00 against LRRK2 (G2019S).

As to `O=C(c1ccc(Nc2nc(NC3CCCC3)c3c(C(F)(F)F)c[nH]c3n2)c2c1CCO2)N1CCOCC1` [Example 453, (7-((4-(cyclo-pentylamino)-5-(trifluoromethyl)-7H-pyrrolo[2,3-d]pyrimidin-2-yl)amino)-2,3-dihydrobenzo-furan-4-yl) (morpholino) methanone], the pIC50 on human GST-DYRK1A was 6.00 to 6.52; against human GST-CLK1 it was 6.00 to 6.52; at LRRK2 (G2019S), greater than 7.00.

In the case of `COc1cc(S(=O)(=O)N2CCC(N3CCOCC3)CC2)ccc1Nc1nc(NCC2CC2)c2cc[nH]c2n1` [Example 32, N^4-(cyclopropylmethyl)-N^2-(2-methoxy-4-((4-morpholinopiperidin-1-yl)sulfonyl)phenyl)-7H-pyrrolo[2,3-d]pyrimidine-2,4-diamine], the pIC50 is 6.00 to 6.52 on human GST-DYRK1A, 6.00 to 6.52 against human GST-CLK1 and greater than 7.00 at LRRK2 (G2019S).

In the case of `CNc1nc(Nc2ccc(S(=O)(=O)N3CCC(N4CCOCC4)CC3)cc2OC)nc2[nH]ccc12` [Example 3, N^2-(2-methoxy-4-((4-morpholinopiperidin-1-yl)sulfonyl)phenyl)-N^4-methyl-7H-pyrrolo[2,3-d]pyrimidine-2,4-diamine 2,2,2-trifluoroacetate], the pIC50 on human GST-DYRK1A is 6.00 to 6.52; at human GST-CLK1, 6.00 to 6.52; at LRRK2 (G2019S) it was greater than 7.00.

Take `COc1cc(P2(=O)CCN(C3COC3)CC2)ccc1Nc1nc(NC2CCC2)c2c(C#N)c[nH]c2n1` [Example 288, 4-(cyclo-butylamino)-2-((2-methoxy-4-(1-(oxetan-3-yl)-4-oxido-1,4-azaphosphinan-4-yl)phenyl)amino)-7H-pyrrolo[2,3-d]pyrimidine-5-carbonitrile]: the pIC50 at human GST-DYRK1A, against human GST-CLK1 and on LRRK2 (G2019S) was greater than 7.00 in each case.

Regarding `CCCCNc1nc(Nc2ccc(P3(=O)CCN(C4CC4)CC3)cc2OC)nc2[nH]cc(C(F)(F)F)c12` [Example 428, 4-(4-((4-(butylamino)-5-(trifluoromethyl)-7H-pyrrolo[2,3-d]pyrimidin-2-yl)amino)-3-methoxyphenyl)-1-cyclopropyl-1,4-azaphosphinane 4-oxide], the negative logarithm of the IC50 (pIC50) is 6.00 to 6.52 on human GST-DYRK1A, 6.00 to 6.52 against human GST-CLK1 and greater than 7.00 against LRRK2 (G2019S).

Regarding `CCNc1nc(Nc2ccc(S(=O)(=O)N3CCC(N4CCOCC4)CC3)cc2OC)nc2[nH]ccc12` [Example 6, N^4-ethyl-N^2-(2-methoxy-4-((4-morpholinopiperidin-1-yl)sulfonyl)phenyl)-7H-pyrrolo[2,3-d]pyrimidine-2,4-diamine 2,2,2-trifluoroacetate], the figures for the pIC50 on human GST-DYRK1A, against human GST-CLK1 and on LRRK2 (G2019S) were 6.00 to 6.52, 6.00 to 6.52 and greater than 7.00, respectively.

As to `COc1cc(P(C)(C)=O)ccc1Nc1nc(NCC2CCCC2)c2c(C(F)(F)F)c[nH]c2n1` [Example 392, (4-((4-((cyclo-pentylmeth-yl)amino)-5-(trifluoromethyl)-7H-pyrrolo[2,3-d]pyrimidin-2-yl)amino)-3-methoxyphenyl) dimethyl-phosphine oxide], the pIC50 on human GST-DYRK1A, on human GST-CLK1 and against LRRK2 (G2019S) was 6.00 to 6.52 in each case.

On to `CCCCNc1nc(Nc2ccc(C(=O)N3CCN(C4COC4)CC3)c3c2OCCO3)nc2[nH]cc(C(F)(F)F)c12` [Example 429, (8-((4-(butylamino)-5-(trifluoromethyl)-7H-pyrrolo[2,3-d]pyrimidin-2-yl)amino)-2,3-dihydrobenzo[b] [1,4]dioxin-5-yl) (4-(oxetan-3-yl)piperazin-1-yl)methanone], for which the pIC50 on human GST-DYRK1A, against human GST-CLK1 and against LRRK2 (G2019S) was greater than 7.00 each time.

Consider `COc1cc(P(C)(C)=O)ccc1Nc1nc(NCC2CCC2)c2c(C(F)(F)F)c[nH]c2n1` [Example 391, (4-((4-((cyclo-butylmethyl)amino)-5-(trifluoromethyl)-7H-pyrrolo[2,3-d]pyrimidin-2-yl)amino)-3-methoxyphenyl) dimethyl-phosphine oxide], for which the pIC50 on human GST-DYRK1A is 6.00 to 6.52; on human GST-CLK1 it was 6.00 to 6.52; at LRRK2 (G2019S) it was greater than 7.00.

For `COc1cc(S(=O)(=O)N2CCC(N3CCOCC3)CC2)ccc1Nc1nc(NCC2CCC2)c2cc[nH]c2n1` [Example 38, N^4-(cyclobutylmethyl)-N^2-(2-methoxy-4-((4-morpholinopiperidin-1-yl)sulfonyl)phenyl)-7H-pyrrolo[2,3-d]pyrimidine-2,4-diamine 2,2,2-trifluoroacetate], the pIC50 at human GST-DYRK1A is 6.00 to 6.52; against human GST-CLK1 it was 6.00 to 6.52; on LRRK2 (G2019S), greater than 7.00.

The record behind these values is patent US20230066011A1, “PYRROLOPYRIMIDINE DERIVATIVE, AND PHARMACEUTICAL COMPOSITION FOR PREVENTING OR TREATING PROTEIN KINASE-RELATED DISEASE COMPRISING SAME AS ACTIVE INGREDIENT” (VORONOI CO., LTD., priority 2019, published 2023).
